From patent US20210122739A1, “NOVEL SULFONAMIDE CARBOXAMIDE COMPOUNDS” (Inflazome Limited, priority 2017, published 2021)

Tests used:
[1] = PK protocol: pharmacokinetic parameters in male Sprague Dawley rats; assay type: in vivo; settings: plasma, rat; for Vd: read-out: Vdss
Description: Pharmacokinetic parameters were determined in male Sprague Dawley rats (Charles River, UK, 250-350 g; or Vital River Laboratory Animal Technology Co Ltd, Beijing, China, 7-9 weeks old). Animals were individually housed during the study and maintained under a 12 h light/dark cycle. Animals had free access to food and water except that some orally dosed animals were food deprived overnight prior to the study.
For intravenous administration, compounds were formulated as a solution in water or DMSO:PBS [10:90] in 2 mL/kg dosing volume and administered via tail vein. For oral administration, compounds were formulated as a solution in water or DMSO:water [10:90] in 5 mL/kg dosing volume and administered orally.
Serial blood samples (about 120-300 μL) were taken from each animal at each of 8 time-points post dose (0.083, 0.25, 0.5, 1, 2, 4, 8 and 24 h) or at each of 12 time-points post dose (0.03, 0.1, 0.17, 0.25, 0.5, 1, 2, 4, 6, 8, 12 and 24 h) or pre-dose and at each of 9 time-points post dose (0.25, 0.5, 1, 2, 4, 6, 8, 12 and 24 h). Samples were held on ice for no longer than 30 minutes before centrifugation (10,000 rpm (8,385 g) for 3 minutes; or 5,696 rpm (3,000 g) for 15 minutes) for plasma generation. Plasma was frozen on dry ice prior to bioanalysis. PK parameters were generated from LC-MS/MS data using Dotmatics or Phoenix WinNonlin 6.3 software.

NLRP3 [2] = target: T1, NLRP3 (Homo sapiens, UniProt Q96P20); assay: THP-1 cells pyroptosis assay; assay type: cell-based; set-up: Seed THP-1 cells (25,000 cells/well) containing 1.0 μg/ml LPS; host or cells: THP-1 cells, LPS-primed, nigericin-stimulated; settings: 1.0 μg/ml LPS, nigericin 5 μM, resazurin readout
Summary of the method: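 THP-1 cells (25,000/well, serum-free RPMI) primed with 1 μg/ml LPS were given compound (8-point half-log series, top 10 μM; 0.1% DMSO) for 3 h at 37 °C, then 5 μM nigericin for 1 h. Viability read by 100 μM resazurin fluorescence (Ex 560/Em 590) after 1–2 h; IC50 from four-parameter nonlinear regression.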

NLRP3 [3] = target: T1, NLRP3; assay: Human whole blood IL1β release assay; assay type: cell-based; set-up: Plate out 80 μl of whole blood containing 1 μg/ml of LPS; from tissue; host or cells: human whole blood from healthy donors, LPS-primed, nigericin-stimulated; settings: 1 μg/ml LPS, nigericin 10 μM, IL-1β by AlphaLisa, read-out: HWB IC50
Description: For systemic delivery, the ability to inhibit NLRP3 when the compounds are present within the bloodstream is of great importance. For this reason, the NLRP3 inhibitory activity of a number of compounds in human whole blood was investigated in accordance with the following protocol.
Human whole blood in Li-heparin tubes was obtained from healthy donors from a volunteer donor panel. • 1. Plate out 80 μl of whole blood containing 1 μg/ml of LPS in 96-well, clear bottom cell culture plate (Corning #3585) • 2. Add 10 μl compound (8 points half-log dilution with 10 μM top dose) or vehicle (DMSO 0.1% FAC) to the appropriate wells • 3. Incubate for 3 hrs at 37° C., 5% CO2 • 4. Add 10 μl Nigericin (Sigma #N7143) (10 μM FAC) to all wells • 5. Incubate for 1 hr at 37° C., 5% CO2 • 6. At the end of the incubation period, spin plates at 300×g for 5 mins to pellet cells and remove 20 μl of supernatant and add to 96-well v-bottom plates for IL-1β analysis (note: these plates containing the supernatants can be stored at −80° C. to be analysed at a later date) • 7. IL-1β was measured according to the manufacturer protocol (Perkin Elmer-AlphaLisa IL-1 Kit AL220F-5000) • 8. IC50 data is fitted to anon-linear regression equation (log inhibitor vs response-variable slope 4-parameters)

[4] = intravenous administration, dose per compound in Dose column (0.83-5.05 mg/kg)
[5] = oral administration, dose per compound in Dose column (3 or 5 mg/kg)

T1 sequence (Q96P20 whole entry): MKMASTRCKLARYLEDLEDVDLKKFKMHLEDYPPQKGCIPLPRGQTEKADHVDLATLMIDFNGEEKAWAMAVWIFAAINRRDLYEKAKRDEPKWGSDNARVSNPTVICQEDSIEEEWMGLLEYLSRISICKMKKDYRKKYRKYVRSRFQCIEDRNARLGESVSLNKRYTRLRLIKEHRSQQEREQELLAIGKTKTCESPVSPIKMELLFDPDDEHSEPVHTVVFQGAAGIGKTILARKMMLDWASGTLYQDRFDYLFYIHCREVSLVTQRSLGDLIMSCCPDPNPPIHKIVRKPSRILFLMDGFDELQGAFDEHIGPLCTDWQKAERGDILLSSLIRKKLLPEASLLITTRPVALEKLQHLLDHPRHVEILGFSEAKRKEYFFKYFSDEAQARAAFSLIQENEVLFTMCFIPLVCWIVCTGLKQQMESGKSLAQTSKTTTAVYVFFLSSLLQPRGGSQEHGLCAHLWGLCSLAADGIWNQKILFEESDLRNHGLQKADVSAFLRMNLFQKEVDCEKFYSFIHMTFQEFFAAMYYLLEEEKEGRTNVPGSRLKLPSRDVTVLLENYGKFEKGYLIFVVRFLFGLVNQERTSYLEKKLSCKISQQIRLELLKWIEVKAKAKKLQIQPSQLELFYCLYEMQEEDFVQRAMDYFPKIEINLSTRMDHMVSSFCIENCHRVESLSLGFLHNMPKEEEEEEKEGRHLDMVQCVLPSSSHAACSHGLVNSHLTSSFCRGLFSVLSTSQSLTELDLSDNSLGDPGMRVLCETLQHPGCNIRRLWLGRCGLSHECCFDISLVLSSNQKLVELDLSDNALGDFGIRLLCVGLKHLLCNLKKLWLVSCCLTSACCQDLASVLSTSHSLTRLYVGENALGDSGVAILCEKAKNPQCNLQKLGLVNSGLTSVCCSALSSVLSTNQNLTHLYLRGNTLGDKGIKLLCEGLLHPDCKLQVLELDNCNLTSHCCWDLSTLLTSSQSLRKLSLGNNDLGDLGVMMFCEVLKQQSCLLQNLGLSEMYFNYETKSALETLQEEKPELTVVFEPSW

| Compound | AUC [1, 4] | clearance [1, 4] | half-life [1, 4] | Vd [1, 4] | IC50 (NLRP3 [2]) | IC50 (NLRP3 [3]) | CL/F [1, 5] | Tmax [1, 5] | bioavailability [1, 5] | half-life [1, 5] | AUC [1, 5] | Cmax [1, 5] |
| --- | --- | --- | --- | --- | --- | --- | --- | --- | --- | --- | --- | --- |
| CC(C)c1cccc(C(C)C)c1NC(=O)NS(=O)(=O)c1cc(C(=O)N(C)C)n(C)n1 [Example 67, 3-(N-((2,6-Diisopropylphenyl)carbamoyl)sulfamoyl)-N,N,1-trimethyl-1H-pyrazole-5-carboxamide] | 334 ng·h/mL | 48.7 mL/min/kg | 0.5 h | 0.99 L/kg | 160 to 640 nM | < 400 nM | – | – | – | – | – | – |
| CC(C)c1cc(Cl)cc(C(C)C)c1NC(=O)NS(=O)(=O)c1cc(C(=O)N(C)C)n(C)n1 [Example 68, 3-(N-((4-Chloro-2,6-diisopropylphenyl)carbamoyl)sulfamoyl)-N,N,1-trimethyl-1H-pyrazole-5-carboxamide] | 353 ng·h/mL | 161 mL/min/kg | 1.3 h | 10.6 L/kg | 40 to 160 nM | 1600 to 3200 nM | – | – | – | – | – | – |
| CC(C)n1nc(S(=O)(=O)NC(=O)Nc2c3c(cc4c2CCC4)CCC3)cc1C(=O)N1CCC1 [Example 31, 5-(Azetidine-1-carbonyl)-N-((1,2,3,5,6,7-hexahydro-s-indacen-4-yl)carbamoyl)-1-isopropyl-1H-pyrazole-3-sulfonamide] | 303 ng·h/mL | 55.3 mL/min/kg | 1.6 h | 1.66 L/kg | 40 to 160 nM | 800 to 1600 nM | – | – | – | – | – | – |
| CC(C)c1cc(F)cc(C(C)C)c1NC(=O)NS(=O)(=O)c1cc(C(=O)N(C)C)n(C)n1 [Example 60, 3-(N-((4-Fluoro-2,6-diisopropylphenyl)carbamoyl)sulfamoyl)-N,N,1-trimethyl-1H-pyrazole-5-carboxamide] | 283 ng·h/mL | 59.2 mL/min/kg | 3.3 h | 4.08 L/kg | 160 to 640 nM | < 400 nM | 110 mL/min/kg | 0.17 h | 54.3% | 9.7 h | 770 ng·h/mL | 495 ng/mL |
| CC(C)c1cc(Cl)cc(C(C)C)c1NC(=O)NS(=O)(=O)c1cc(C(=O)N(C)CCO)n(C)n1 [Example 74, 3-(N-((4-Chloro-2,6-diisopropylphenyl)carbamoyl)sulfamoyl)-N-(2-hydroxyethyl)-N,1-dimethyl-1H-pyrazole-5-carboxamide] | – | – | – | – | 40 to 160 nM | 800 to 1600 nM | – | – | – | – | – | – |
| CN(C(=O)c1cc(S(=O)(=O)NC(=O)Nc2c3c(cc4c2CCC4)CCC3)nn1C)C1CC1 [Example 52, N-Cyclopropyl-3-(N-((1,2,3,5,6,7-hexahydro-s-indacen-4-yl)carbamoyl)sulfamoyl)-N,1-dimethyl-1H-pyrazole-5-carboxamide] | – | – | – | – | 40 to 160 nM | 400 to 800 nM | – | – | – | – | – | – |
| CC(C)c1cc(F)cc(C(C)C)c1NC(=O)NS(=O)(=O)c1cc(C(=O)N2CCC2)n(C)n1 [Example 45, 5-(Azetidine-1-carbonyl)-N-((4-fluoro-2,6-diisopropylphenyl)carbamoyl)-1-methyl-1H-pyrazole-3-sulfonamide] | 415 ng·h/mL | 40.3 mL/min/kg | 6.4 h | 7.96 L/kg | 40 to 160 nM | < 400 nM | – | – | – | – | – | – |

Now from value to molecule:

| AUC [1, 4] | clearance [1, 4] | half-life [1, 4] | Vd [1, 4] | IC50 (NLRP3 [2]) | IC50 (NLRP3 [3]) | CL/F [1, 5] | Tmax [1, 5] | bioavailability [1, 5] | half-life [1, 5] | AUC [1, 5] | Cmax [1, 5] | Compound |
| --- | --- | --- | --- | --- | --- | --- | --- | --- | --- | --- | --- | --- |
| – | – | – | – | 40 to 160 nM | 400 to 800 nM | 21.5 mL/min/kg | 0.08 h | 67% | 4.9 h | – | – | COCCN(C)C(=O)c1cc(S(=O)(=O)NC(=O)Nc2c3c(cc4c2CCC4)CCC3)nn1C [Example 27, 3-(N-((1,2,3,5,6,7-Hexahydro-s-indacen-4-yl)carbamoyl)sulfamoyl)-N-(2-methoxyethyl)-N,1-dimethyl-1H-pyrazole-5-carboxamide] |
| 3390 ng·h/mL | 24.8 mL/min/kg | 25.3 h | 17.8 L/kg | 40 to 160 nM | < 400 nM | 49.5 mL/min/kg | 0.25 h | 62% | 3.4 h | 1050 ng·h/mL | 600 ng/mL | CN(C)C(=O)c1cc(S(=O)(=O)NC(=O)Nc2c3c(cc4c2CCC4)CCC3)nn1C [Example 69, 3-(N-((1,2,3,5,6,7-Hexahydro-s-indacen-4-yl)carbamoyl)sulfamoyl)-N,N,1-trimethyl-1H-pyrazole-5-carboxamide] |
| – | – | – | – | 160 to 640 nM | < 400 nM | – | – | – | – | – | – | Cn1nc(S(=O)(=O)NC(=O)Nc2c3c(cc4c2CCC4)CCC3)cc1C(=O)N(CCO)CCO [Example 15, 3-(N-((1,2,3,5,6,7-Hexahydro-s-indacen-4-yl)carbamoyl)sulfamoyl)-N,N-bis(2-hydroxyethyl)-1-methyl-1H-pyrazole-5-carboxamide] |
| 1720 ng·h/mL | 25 mL/min/kg | 0.1 h | 0.24 L/kg | 40 to 160 nM | 400 to 800 nM | – | – | – | – | – | – | CCN(C)C(=O)c1cc(S(=O)(=O)NC(=O)Nc2c3c(cc4c2CCC4)CCC3)nn1C [Example 62, N-Ethyl-3-(N-((1,2,3,5,6,7-hexahydro-s-indacen-4-yl)carbamoyl)sulfamoyl)-N,1-dimethyl-1H-pyrazole-5-carboxamide] |
| – | – | – | – | 40 to 160 nM | 1600 to 3200 nM | – | – | – | – | – | – | CC(C)N(C)C(=O)c1cc(S(=O)(=O)NC(=O)Nc2c3c(cc4c2CCC4)CCC3)nn1C [Example 64, 3-(N-((1,2,3,5,6,7-Hexahydro-s-indacen-4-yl)carbamoyl)sulfamoyl)-N-isopropyl-N,1-dimethyl-1H-pyrazole-5-carboxamide] |
